According to US11730746B2, “17beta-heterocyclyl-digitalis like compounds for the treatment of heart failure” (priority 2018, dated 2023):
“And” between values parts separate entries of the source, which are not always exact repeats. Identical values can stand only once.

What was measured:
[1] = Acute toxicity (LD50) in mouse; conditions: Albino Swiss CD-1, in vivo, single administration
Method: 194. Acute toxicity has been determined in the mouse (Albino Swiss CD-1, body weight 30 g). Mice were orally treated, or intravenously injected, with single administration of increasing doses of the test substance to identify the dose causing 50% mortality. Mortality occurred within 30 min after the administration and survival after 24 h. The acute toxicity (LD50) was then assessed.
The acute toxicity of the tested compound CVie 101 has been determined in the mouse (Albino Swiss CD-1, body weight 30 g). CVie 101 has been orally administered or intravenously injected at increasing doses to identify the dose causing 50% mortality. Mortality occurred within 30 min after the administration and survival after 24 h.

guinea pig = experiment: Haemodynamics: inotropic and lethal dose in guinea pig; format: in vivo; conditions: for E max % increase in dP/dtmax: 90 min; for ED max: cumulative dose
Method: Guinea-pigs (400-450 g) were anaesthetized with urethane (1.5 g/kg ip). A microtip pressure transducer was introduced into the left ventricle through the right carotid artery to measure ventricular pressure (LVP); the transducer was coupled with a transducer amplifier. Recordings were fed to a polygraph and analyzed. A polythene cannula was inserted into a jugular vein for drug infusion. After a stabilization period, the test substance was injected at the rate of 0.16 ml/min for 90 min (Micheletti R et al. J Pharmacol Exp Ther 2002; 303:592-600).
The following parameters were obtained: heart rate (HR), left ventricular pressure (LVP), maximal velocity of pressure rise (+dP/dtmax) and decay (−dP/dtmax), ECG. For inotropy, the time elapsed until +dP/dtmax increased by 80% was identified in order to determine the ED80 (dose increasing basal +dP/dtmax by 80%). The time to the maximum increase in +dP/dtmax was also identified to determine the maximum effective dose, EDmax. Lusitropy was characterized by the dose inducing the maximum decrease in −dP/dtmax, (EDmax). As indexes of toxicity, the dose administered until the onset of arrhythmias and the dose inducing death (LD) were calculated. The safety ratio for the tested compound was also calculated as the ratio between LD and ED80.

[2] = target: T1, CYP19 (CYP450, 19; aromatase) (Homo sapiens, UniProt P11511); experiment: Eurofins panel 118040; format: biochemical; conditions: crude membrane preparations
T1 construct: Eurofins 118040
Method: (§1) Radioligand binding to a panel of receptors was carried out by Eurofins on crude membrane preparations according to published procedures and by using appropriate reference standard (Eurofins, CVie 101 compound code PT #1207859, study #AB76416, quote #68407-1, for Cvie Therapeutics Limited, Taiwan (R.OC.) on Mar. 5, 2017). CVie 101 was tested at the concentration of 10 μM. No significant interaction was documented, except for Sodium Channel, site 2 from rat (cat #279510), where a significant response (≥50%) was noted (Table 7).

HMG-CoA Reductase = target: T2, HMG-CoA Reductase (Homo sapiens, UniProt P04035); experiment: Eurofins panel 124010; format: biochemical
T2 construct: Eurofins 124010
T2 sequence (P04035 426-888 limits assumed): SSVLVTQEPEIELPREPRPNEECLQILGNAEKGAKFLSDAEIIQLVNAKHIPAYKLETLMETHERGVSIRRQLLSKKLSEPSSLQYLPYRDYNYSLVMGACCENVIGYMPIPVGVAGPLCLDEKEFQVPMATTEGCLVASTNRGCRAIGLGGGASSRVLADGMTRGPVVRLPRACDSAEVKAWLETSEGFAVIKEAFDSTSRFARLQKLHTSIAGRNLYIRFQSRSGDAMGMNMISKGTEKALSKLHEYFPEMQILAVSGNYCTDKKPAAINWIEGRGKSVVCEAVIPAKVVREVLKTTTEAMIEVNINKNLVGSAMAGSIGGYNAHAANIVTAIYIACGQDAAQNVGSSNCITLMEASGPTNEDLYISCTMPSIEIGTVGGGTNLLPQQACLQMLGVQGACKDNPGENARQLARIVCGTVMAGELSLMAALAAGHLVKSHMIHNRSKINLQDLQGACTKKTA

Monoamine Oxidase MAO-A = target: T3, Monoamine Oxidase MAO-A (Homo sapiens, UniProt P21397); experiment: Eurofins panel 140010; format: biochemical
T3 construct: Eurofins 140010
T3 sequence (P21397 whole entry): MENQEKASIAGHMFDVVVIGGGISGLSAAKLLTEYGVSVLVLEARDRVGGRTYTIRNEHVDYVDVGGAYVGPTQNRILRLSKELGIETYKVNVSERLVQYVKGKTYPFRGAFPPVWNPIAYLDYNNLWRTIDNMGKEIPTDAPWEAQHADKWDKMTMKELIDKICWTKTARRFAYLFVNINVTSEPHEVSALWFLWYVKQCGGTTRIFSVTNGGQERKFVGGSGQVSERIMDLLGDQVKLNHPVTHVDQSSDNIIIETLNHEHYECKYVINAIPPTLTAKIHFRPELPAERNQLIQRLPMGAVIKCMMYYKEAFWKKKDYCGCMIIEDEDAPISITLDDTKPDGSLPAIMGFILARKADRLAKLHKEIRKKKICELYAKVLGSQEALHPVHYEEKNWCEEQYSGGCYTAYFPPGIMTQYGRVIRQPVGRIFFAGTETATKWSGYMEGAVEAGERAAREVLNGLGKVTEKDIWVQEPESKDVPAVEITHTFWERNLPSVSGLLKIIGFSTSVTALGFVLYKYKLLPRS
Method: as §1

Angiotensin AT2 = target: T4, Angiotensin AT2 (Homo sapiens, UniProt P50052); experiment: Receptor binding 210120
T4 construct: Eurofins 210120; host or cells: crude membrane preparation
T4 sequence (P50052 whole entry): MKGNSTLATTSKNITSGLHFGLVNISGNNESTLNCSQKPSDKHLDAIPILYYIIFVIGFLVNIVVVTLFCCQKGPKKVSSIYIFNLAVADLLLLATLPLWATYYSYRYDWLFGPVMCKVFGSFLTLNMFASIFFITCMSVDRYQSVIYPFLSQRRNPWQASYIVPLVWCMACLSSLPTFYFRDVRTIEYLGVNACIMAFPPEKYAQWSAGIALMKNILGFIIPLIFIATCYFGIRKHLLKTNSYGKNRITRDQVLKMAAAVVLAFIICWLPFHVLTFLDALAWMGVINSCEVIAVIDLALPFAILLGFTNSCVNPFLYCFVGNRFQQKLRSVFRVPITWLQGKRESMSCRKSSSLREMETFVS
Method: as §1

Dopamine D3 = target: T5, Dopamine D3 (Homo sapiens, UniProt P35462); experiment: Receptor binding 219800
T5 construct: Eurofins 219800; host or cells: crude membrane preparation
T5 sequence (P35462 whole entry): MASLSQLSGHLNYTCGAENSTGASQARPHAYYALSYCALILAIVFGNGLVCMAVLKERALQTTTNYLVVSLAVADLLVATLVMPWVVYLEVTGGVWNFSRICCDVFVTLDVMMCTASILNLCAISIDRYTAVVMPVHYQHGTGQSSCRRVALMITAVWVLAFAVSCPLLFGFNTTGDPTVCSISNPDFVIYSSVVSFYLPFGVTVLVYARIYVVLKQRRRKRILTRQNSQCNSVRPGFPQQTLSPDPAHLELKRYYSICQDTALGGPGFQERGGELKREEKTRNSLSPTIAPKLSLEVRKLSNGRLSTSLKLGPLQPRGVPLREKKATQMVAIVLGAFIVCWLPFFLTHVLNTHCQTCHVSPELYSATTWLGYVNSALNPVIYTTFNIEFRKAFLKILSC
Method: as §1

Estrogen ERα = target: T6, Estrogen ERα (Homo sapiens, UniProt P03372); experiment: Receptor binding 226010
T6 construct: Eurofins (contract assay) 226010
Method: as §1

[3] = test system: GABAA, Flunitrazepam, Central; experiment: Receptor binding 226600; set-up: species or system rat; conditions: 10 μM
Method: as §1

Histamine H1 = target: T7, Histamine H1 (Homo sapiens, UniProt P35367); experiment: Receptor binding 239610
T7 construct: Eurofins (contract assay) 239610
T7 sequence (P35367 whole entry): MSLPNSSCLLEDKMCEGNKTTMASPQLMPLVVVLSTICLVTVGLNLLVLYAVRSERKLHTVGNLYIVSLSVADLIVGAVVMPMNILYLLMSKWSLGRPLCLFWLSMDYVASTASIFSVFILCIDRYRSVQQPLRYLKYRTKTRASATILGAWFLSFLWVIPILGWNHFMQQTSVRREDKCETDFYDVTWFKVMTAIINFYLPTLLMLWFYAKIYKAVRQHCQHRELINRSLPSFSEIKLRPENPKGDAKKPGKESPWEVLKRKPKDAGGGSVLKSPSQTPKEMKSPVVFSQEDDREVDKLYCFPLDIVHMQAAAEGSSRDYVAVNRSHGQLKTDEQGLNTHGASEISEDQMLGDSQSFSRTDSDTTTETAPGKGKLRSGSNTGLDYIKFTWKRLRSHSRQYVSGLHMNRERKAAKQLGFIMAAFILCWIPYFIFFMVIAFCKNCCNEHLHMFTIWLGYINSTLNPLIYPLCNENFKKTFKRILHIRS
Method: as §1

Imidazoline I2, Central = experiment: Receptor binding 241000; set-up: species or system rat; conditions: 10 μM
Method: as §1

Muscarinic M3 = target: T8, Muscarinic M3 (Homo sapiens, UniProt P20309); experiment: Receptor binding 252810
T8 construct: Eurofins (contract assay) 252810
T8 sequence (P20309 whole entry): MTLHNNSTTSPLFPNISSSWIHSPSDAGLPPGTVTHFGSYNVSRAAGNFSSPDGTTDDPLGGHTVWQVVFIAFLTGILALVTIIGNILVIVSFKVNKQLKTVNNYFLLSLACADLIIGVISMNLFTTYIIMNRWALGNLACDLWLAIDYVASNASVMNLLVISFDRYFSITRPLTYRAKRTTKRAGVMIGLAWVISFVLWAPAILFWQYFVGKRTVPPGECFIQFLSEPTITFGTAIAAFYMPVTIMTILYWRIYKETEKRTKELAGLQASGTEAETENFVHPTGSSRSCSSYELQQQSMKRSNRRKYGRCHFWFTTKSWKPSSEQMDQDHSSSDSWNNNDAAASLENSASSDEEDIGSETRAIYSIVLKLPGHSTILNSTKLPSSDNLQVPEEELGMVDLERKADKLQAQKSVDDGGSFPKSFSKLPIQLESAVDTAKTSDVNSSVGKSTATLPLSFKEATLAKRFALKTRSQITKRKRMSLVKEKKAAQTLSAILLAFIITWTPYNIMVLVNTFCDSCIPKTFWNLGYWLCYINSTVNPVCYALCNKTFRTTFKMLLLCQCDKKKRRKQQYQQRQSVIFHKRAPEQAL
Method: as §1

Muscarinic M5 = target: T9, Muscarinic M5 (Homo sapiens, UniProt P08912); experiment: Receptor binding 253010
T9 construct: Eurofins (contract assay) 253010
T9 sequence (P08912 whole entry): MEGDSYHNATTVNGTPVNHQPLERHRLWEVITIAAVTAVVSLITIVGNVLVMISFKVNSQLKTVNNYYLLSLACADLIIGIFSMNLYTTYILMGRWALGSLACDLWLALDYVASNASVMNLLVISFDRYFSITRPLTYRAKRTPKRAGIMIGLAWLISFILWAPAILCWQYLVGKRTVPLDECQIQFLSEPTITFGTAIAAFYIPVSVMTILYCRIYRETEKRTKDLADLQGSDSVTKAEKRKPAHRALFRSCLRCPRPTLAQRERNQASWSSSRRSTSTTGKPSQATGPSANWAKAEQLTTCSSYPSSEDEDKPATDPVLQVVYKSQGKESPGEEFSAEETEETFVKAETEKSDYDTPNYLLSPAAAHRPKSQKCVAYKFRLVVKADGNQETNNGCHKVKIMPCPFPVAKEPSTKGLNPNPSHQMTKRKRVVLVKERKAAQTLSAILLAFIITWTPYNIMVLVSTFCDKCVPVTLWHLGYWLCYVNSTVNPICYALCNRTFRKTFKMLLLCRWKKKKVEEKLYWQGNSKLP
Method: as §1

Opiate μ(OP3, MOP) = target: T10, Opiate μ(OP3, MOP) (Homo sapiens, UniProt P35372); experiment: Receptor binding 260410
T10 construct: Eurofins (contract assay) 260410
Method: as §1

Potassium Channel (KATP) = target: T11, Potassium Channel (KATP) (Cricetus cricetus, UniProt Q09427); experiment: Receptor binding 265600; set-up: species or system hamster
T11 construct: Eurofins (contract assay) 265600
T11 sequence (Q09427 whole entry): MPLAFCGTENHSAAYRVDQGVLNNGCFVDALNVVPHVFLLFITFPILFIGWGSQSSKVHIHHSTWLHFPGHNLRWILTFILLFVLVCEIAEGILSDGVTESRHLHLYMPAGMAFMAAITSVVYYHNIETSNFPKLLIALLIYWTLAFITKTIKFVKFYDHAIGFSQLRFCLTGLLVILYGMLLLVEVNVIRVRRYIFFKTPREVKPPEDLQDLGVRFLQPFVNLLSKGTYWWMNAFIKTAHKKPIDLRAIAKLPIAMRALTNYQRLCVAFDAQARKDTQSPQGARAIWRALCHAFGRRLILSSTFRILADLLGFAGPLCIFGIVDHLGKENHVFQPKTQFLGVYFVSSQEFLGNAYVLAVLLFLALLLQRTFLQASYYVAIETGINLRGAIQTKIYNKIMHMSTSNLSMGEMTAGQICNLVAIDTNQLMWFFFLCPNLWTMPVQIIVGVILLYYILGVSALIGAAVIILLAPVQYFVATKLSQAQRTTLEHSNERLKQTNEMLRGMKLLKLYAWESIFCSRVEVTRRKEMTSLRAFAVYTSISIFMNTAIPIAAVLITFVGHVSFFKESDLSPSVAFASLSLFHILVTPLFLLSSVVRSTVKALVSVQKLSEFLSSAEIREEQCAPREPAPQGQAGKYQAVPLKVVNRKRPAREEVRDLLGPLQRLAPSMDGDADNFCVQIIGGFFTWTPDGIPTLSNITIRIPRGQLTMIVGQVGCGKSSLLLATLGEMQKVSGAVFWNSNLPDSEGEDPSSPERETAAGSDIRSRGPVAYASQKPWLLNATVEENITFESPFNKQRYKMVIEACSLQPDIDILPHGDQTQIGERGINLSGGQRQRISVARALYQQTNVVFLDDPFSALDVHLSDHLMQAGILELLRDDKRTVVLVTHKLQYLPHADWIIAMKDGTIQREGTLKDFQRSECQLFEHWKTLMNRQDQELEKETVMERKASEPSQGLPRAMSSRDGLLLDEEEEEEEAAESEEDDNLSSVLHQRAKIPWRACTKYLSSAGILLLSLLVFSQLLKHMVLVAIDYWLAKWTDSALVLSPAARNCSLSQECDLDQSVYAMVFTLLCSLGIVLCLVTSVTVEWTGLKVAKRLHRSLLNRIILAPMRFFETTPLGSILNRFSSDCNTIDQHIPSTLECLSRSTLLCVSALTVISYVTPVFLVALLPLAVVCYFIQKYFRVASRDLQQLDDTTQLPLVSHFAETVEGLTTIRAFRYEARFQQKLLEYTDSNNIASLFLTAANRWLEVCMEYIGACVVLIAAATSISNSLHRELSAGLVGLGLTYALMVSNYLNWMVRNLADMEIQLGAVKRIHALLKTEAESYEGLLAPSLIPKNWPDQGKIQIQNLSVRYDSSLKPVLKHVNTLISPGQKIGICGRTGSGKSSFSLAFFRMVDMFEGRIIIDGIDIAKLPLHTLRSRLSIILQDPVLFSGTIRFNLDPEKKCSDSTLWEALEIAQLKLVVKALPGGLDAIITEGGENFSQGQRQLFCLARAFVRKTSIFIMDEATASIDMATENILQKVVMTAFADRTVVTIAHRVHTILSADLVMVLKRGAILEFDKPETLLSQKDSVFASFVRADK
Method: as §1

Ryanodine RyR3 = target: T12, Ryanodine RyR3 (Rattus norvegicus, UniProt A0ABK0LPH6); experiment: Receptor binding 270300
T12 construct: Eurofins (contract assay) 270300
Method: as §1

[4] = test system: Serotonin (5-Hydroxytryptamine) 5-HT1, non selective; experiment: Receptor binding 271010; set-up: species or system rat; conditions: 10 μM
Method: as §1

[5] = rats, study i.v. 1 mg/kg and os 10 mg/kg, mean

For C[C@]12CC[C@H](O)C[C@H]1CCC1C2CC[C@]2(C)[C@@H](c3c[nH]cn3)CC[C@]12O (stereo partly drawn) [CVie 101, 3β-hydroxy-5β-10β-methyl-13β-methyl-14β-hydroxy-17β-(imidazol-4-yl)androstane], the LD50 at 24 h ([1]; iv) was 20 mg/kg, the LD50 at 24 h ([1]; oral, os) was 350 mg/kg and the Dead/treated number (guinea pig; i.v. infusion 0.2 mg/kg/min) was 1/8. For the same compound, the ED80 (guinea pig; i.v. infusion 0.2 mg/kg/min) was 1.6 mg/kg and 1.60 mg/kg, the Lethal dose (guinea pig; i.v. infusion 0.2 mg/kg/min) was over 18 mg/kg and the “E max % increase in dP/dtmax” value (guinea pig; i.v. infusion 0.2 mg/kg/min) was 163.6%. The ED max (guinea pig; i.v. infusion 0.2 mg/kg/min) was 3.73 mg/kg, the Dead/treated number (guinea pig; i.v. infusion 0.5 mg/kg/min) was 8/8 and the ED80 (guinea pig; i.v. infusion 0.5 mg/kg/min) was 2.74 mg/kg. For the same compound, the Lethal dose (guinea pig; i.v. infusion 0.5 mg/kg/min) was 28.2 mg/kg, the “E max % increase in dP/dtmax” value (guinea pig; i.v. infusion 0.5 mg/kg/min) was 216.8% and the ED max (guinea pig; i.v. infusion 0.5 mg/kg/min) was 5.08 mg/kg. For the same compound, the LD/ED80 (guinea pig; i.v. infusion 0.5 mg/kg/min, safety ratio) was 11.32, the inhibition at 10 µM [2] was 36% and the inhibition at 10 µM (HMG-CoA Reductase) was 7%. It also gave an inhibition at 10 µM (Monoamine Oxidase MAO-A) of 4%, an inhibition at 10 µM (Angiotensin AT2) of -1% and an inhibition at 10 µM (Dopamine D3) of 7%. The inhibition at 10 µM (Estrogen ERα) was 14%, the “% inhib” value [3] was 6% and the inhibition at 10 µM (Histamine H1) was 13%. For the same compound, the “% inhib” value (Imidazoline I2, Central) was 25%, the inhibition at 10 µM (Muscarinic M3) was 15% and the inhibition at 10 µM (Muscarinic M5) was 21%. It also gave an inhibition at 10 µM (Opiate μ(OP3, MOP)) of 19%, an inhibition at 10 µM (Potassium Channel (KATP)) of -6% and an inhibition at 10 µM (Ryanodine RyR3) of 8%. For the same compound, the “% inhib” value [4] was 7%, the AUC(0-inf) (Bioavailability in rats; rat, in vivo, 10 mg/kg) was 2490 ng·h/mL and the AUC(0-t) (Bioavailability in rats; rat, in vivo, 10 mg/kg) was 2430 ng·h/mL. The Cmax (Bioavailability in rats; rat, in vivo, 10 mg/kg) was 1020 ng/mL, the MRT last (Bioavailability in rats; rat, in vivo, 10 mg/kg) was 2.03 h and the Tmax (Bioavailability in rats; rat, in vivo, 10 mg/kg) was 0.5 h. It also gave a half-life (Bioavailability in rats; rat, in vivo, 10 mg/kg) of 2.21 h, a bioavailability (Bioavailability in rats; rat, in vivo, po, 10 mg/kg) of 66.3% and a Cl_F_pred (Bioavailability in rats; [5]) of 81.3 mL/min/kg. The Vz_F_pred (Bioavailability in rats; [5]) was 14.29 L/kg.
